Laboratory results: US5854004A, “Process for screening substances capable of modulating a receptor-dependent cellular signal transmission path” (Boehringer Ingleheim GmbH, priority 1991, dated 1998)
Where no end group is shown, it is not given here.

Columns and labels:
cell line CHO C6-13 = experiment: Luciferase expression in CRE-pretest cell line CHO C6-13; conditions: for change in luciferase expression/activity: 3 hours treatment, FIG. 33
Procedure: The transfection by electroporation was carried out as follows: after removal of the medium the cells were detached from the surface by means of a trypsin/PBS solution, suspended in medium and pelleted for 5 minutes at 250×g. The cells were washed in HBS (10 mM HEPES pH 7.4, 150 mM NaCl) and pelleted by centrifuging. The cells were suspended in HBS in a density of 1×10^7 cells/ml. 0.8 ml of cell suspension were mixed with 20 μg of DNA of the plasmid pADneo2-C6-BGL linearised with ScaI and transferred into an electroporation dish. […] After the electroporation the cells were diluted in the medium mentioned above, 20,000 cells per 90 mm culture dish was sown and incubated overnight at 37° C.
Two batches of each were treated with 20 μM forskolin and incubated for a further 5 hours at 37° C. Then the medium was removed from all the cells and the cells were washed with PBS.
Cells of the cell line CHO C6-13 were treated for 3 hours with various substances which alter the intracellular concentration of cAMP or IP3 /DAG or simulate a change in concentration, and also treated with receptor-specific agonists which influence the above-mentioned signal transduction mechanisms.

cell line A20 = experiment: Luciferase induction in stable TRE-pretest cell line A20 (A549, pBHluc1.3); conditions: A20, no receptor DNA
Procedure: In order to produce a stable (pre-)test cell line for substances which influence the expression of the luciferase gene by direct or receptor-mediated modulation of the IP3 /DAC-signal transduction pathway, A549 cells were simultaneously transfected with the plasmid pBHluc1.3 and the selection plasmid pRSVneo by electroporation as follows: after removal of the medium the cells were detached from the surface by means of a trypsin/PBS solution, suspended in medium and sedimented for 5 minutes at 250×g. […] 0.8 ml of cell suspension were combined with 20 μg of pBHluc1.3 and 2 μg of pRSVneo. Both plasmids had previously been linearised with BamHI.
(§1) 15-20 days after transfection, individual cell clones were transferred into 96-well microtitre plates and further cultivated. […] Approximately 40,000 cells in each clone were sown, in a procedure repeated 6 times, in 200 μl per well of a light-impervious 96-well microtitre plate coated with tissue culture (Microlite™, Dynatech Laboratories) and incubated overnight at 37° C. Three mixtures were treated with 10 ng TPA/ml and incubated for a further 8 hours. Then the medium was removed and the cells were washed twice with PBS.
(§2) The pretest cell line A20 was transfected, as described under a), by electroporation with the plasmid pAHyg-NK2, which had previously been linearised with BglII. From the day after transfection onwards, the cells were grown in selection medium, as used for the cell line A20 and additionally enriched with 150 μg/ml hygromycin B (Sigma). Individual clones were tested for inducibility of the luciferase activity as described under a).

human 5HT2-receptor = human 5HT2-receptor (Homo sapiens, UniProt P28223); experiment: cell-based
Sequence of human 5HT2-receptor (P28223 whole entry): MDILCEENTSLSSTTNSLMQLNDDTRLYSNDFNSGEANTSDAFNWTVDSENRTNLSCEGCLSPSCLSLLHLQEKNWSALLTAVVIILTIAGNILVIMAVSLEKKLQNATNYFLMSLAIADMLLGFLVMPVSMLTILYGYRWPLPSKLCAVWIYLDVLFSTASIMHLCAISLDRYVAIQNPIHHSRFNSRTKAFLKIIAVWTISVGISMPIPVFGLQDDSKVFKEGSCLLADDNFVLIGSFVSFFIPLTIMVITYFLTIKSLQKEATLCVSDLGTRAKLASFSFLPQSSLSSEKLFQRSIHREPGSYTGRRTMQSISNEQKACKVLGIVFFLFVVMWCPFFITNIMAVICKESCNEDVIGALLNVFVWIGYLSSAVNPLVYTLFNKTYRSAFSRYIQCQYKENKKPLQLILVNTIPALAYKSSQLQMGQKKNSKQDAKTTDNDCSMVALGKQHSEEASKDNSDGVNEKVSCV
Source text: The human 5HT2-receptor is another example of a receptor coupled to the phospholipase C-signal transduction pathway. The TRE-cell line A20 is therefore also suitable in this case as a starting cell line for establishing a test cell line in order to discover substances which modulate the activity of the 5HT2-receptor.
The plasmid pAHyg-5HT2, linearised with BglII, was for this purpose transfected into the cell line A20 by electroporation as described under a) and grown in selection medium.
For this purpose the cells were simultaneously treated with a constant amount of serotonin (1 μg) and increasing amounts of antagonist.

luciferase = luciferase (Photinus pyralis, UniProt P08659); experiment: Effect of reagent component concentration on luciferase measuring signal; assay type: biochemical
Sequence of luciferase (P08659 whole entry): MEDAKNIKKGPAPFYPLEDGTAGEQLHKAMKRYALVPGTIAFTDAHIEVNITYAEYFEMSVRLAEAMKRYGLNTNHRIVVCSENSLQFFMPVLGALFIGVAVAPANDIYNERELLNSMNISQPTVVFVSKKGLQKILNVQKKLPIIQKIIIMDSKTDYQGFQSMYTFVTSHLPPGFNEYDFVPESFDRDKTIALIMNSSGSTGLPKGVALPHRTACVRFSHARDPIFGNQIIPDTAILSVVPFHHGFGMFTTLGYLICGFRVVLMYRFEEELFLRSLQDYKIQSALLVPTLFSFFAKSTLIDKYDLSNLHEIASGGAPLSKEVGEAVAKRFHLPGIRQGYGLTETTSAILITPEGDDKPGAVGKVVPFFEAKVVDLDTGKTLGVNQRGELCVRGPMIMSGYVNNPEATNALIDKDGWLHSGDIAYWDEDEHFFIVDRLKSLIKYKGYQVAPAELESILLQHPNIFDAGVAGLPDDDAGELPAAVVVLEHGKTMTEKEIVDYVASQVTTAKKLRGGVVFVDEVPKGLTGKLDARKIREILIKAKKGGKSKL
Procedure: The effect of varying the concentration of ATP, luciferin, MgSO4. 7H2 O, dithiothreitol (DDT), β-mercaptoethanol (BME), sodium tripolyphosphate (NaTPP), Triton X-100 and the pH on the luciferase measuring signal obtained was determined (Table 2). The measurements obtained 3 minutes after the addition of the reagent were used for comparison (given as percentage of the maximum measuring signal obtained).

[1] = biological target: T1, human neurokinin 2-receptor (Homo sapiens, UniProt P21452); experiment: Luciferase activity in NK2-test cell line A20/NK2-122
T1 sequence (P21452 1-398): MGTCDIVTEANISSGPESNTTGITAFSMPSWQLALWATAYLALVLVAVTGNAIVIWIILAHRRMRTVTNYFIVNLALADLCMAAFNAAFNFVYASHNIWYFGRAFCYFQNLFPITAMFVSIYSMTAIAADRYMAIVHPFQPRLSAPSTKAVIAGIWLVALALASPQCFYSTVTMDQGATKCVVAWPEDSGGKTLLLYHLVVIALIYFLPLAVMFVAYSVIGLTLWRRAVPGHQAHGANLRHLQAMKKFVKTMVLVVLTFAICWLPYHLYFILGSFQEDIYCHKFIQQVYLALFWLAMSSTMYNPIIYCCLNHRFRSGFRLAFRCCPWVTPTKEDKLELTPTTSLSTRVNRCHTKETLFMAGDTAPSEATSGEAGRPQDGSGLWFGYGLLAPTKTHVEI
Procedure: as §1
This Example illustrates the preparation of a test cell line for the human neurokinin 2 (NK2)-receptor which is coupled to the phospholipase C-signal transduction pathway. This test cell line makes it possible, by measurement of the luciferase activity, to identify substances which modulate the intracellular IP3 /DAG concentrations, depending on the receptor.
as §2

[2] = biological target: T2, human dopamine D1-receptor (Homo sapiens, UniProt P21728); experiment: Luciferase activity in dopamine D1-receptor test cell line CHO 13D1-38
T2 sequence (P21728 whole entry): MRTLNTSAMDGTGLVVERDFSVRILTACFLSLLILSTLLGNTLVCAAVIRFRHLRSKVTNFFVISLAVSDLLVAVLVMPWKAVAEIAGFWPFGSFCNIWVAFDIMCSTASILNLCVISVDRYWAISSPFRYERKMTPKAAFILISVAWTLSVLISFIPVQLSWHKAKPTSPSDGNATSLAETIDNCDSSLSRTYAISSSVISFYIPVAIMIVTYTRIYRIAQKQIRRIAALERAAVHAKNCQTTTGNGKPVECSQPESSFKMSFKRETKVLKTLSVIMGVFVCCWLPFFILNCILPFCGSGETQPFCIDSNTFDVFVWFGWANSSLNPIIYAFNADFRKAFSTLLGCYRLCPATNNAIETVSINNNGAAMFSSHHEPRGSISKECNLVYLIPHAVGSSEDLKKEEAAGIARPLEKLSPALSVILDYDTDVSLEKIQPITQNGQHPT
Procedure: The cell line CHO C6-13 characterised above was transfected, as described under a), by electroporation with plasmid pAD-CMV2:D1, which had previously been linearised with FspI.
For the use of test cell lines in an automatic screening system with a high throughput rate it is advantageous to use microtitre plates having 96 wells per plate. For this purpose, 60,000 cells (CHO C6-13 or CHO 13D1-38) were sown in 200 μl medium per well in light-impermeable microtitre plates coated with tissue culture
(Microlite™, Dynatech Labroatories) and incubated overnight at 37° C. Then various chemicals were added to the cells and they were incubated for a certain length of time (usually 3 hours). After removal of the medium the cells were washed with PBS, lysed in 1% Triton X-100 and the luciferase activity was measured in a 96-well luminometer (ML-1000, Dynatech) (FIG. 36).
In order to simulate a screening process in which the test substances are preferably supplied in a uniform solvent, a final concentration of 1% DMSO was used in this experiment.

[3] = biological target: T2, human dopamine D1-receptor; experiment: Induction of pADneo2-C6-BGL (CRE) via dopamine-D1-receptor in co-transfected COS-7 cells; conditions: 1 μM apomorphine and 1 μM SCH23390

C[N+](C)(C)CCOC(N)=O [carbachol]
change in luciferase expression/activity (cell line CHO C6-13): did not bring about any significant change in the luciferase activity

NCCc1c[nH]c2ccc(O)cc12 [serotonin]
change in luciferase expression/activity (cell line CHO C6-13): did not bring about any significant change in the luciferase activity | induction of luciferase activity by receptor agonists in pretest cell line A20 (cell line A20): could not be induced | selectivity of dosage-activity curves (human 5HT2-receptor): selective for serotonin | induction time up to which luciferase activity increases continuously (human 5HT2-receptor; serotonin 1 μM): 6 h

CNc1ccc2oc(C[C@H]3O[C@@]4(CC[C@H]3C)O[C@H]([C@H](C)C(=O)c3ccc[nH]3)[C@H](C)C[C@H]4C)nc2c1C(=O)O [A23187]
change in luciferase expression/activity (cell line CHO C6-13): did not bring about any significant change in the luciferase activity

Nc1ncnc2c1ncn2[C@@H]1O[C@H](COP(=O)(O)OP(=O)(O)OP(=O)(O)O)[C@@H](O)[C@H]1O [ATP, adenosine triphosphate]
% max. signal (luciferase) (luciferase; ATP 0.06 g/l): 61% | % max. signal (luciferase) (luciferase; ATP 0.13 g/l): 95% | % max. signal (luciferase) (luciferase; ATP 0.29 g/l): 100% | % max. signal (luciferase) (luciferase; ATP 0.65 g/l): 98% | % max. signal (luciferase) (luciferase; ATP 1.47 g/l): 83% | % max. signal (luciferase) (luciferase; ATP 3.30 g/l): 78%

neuromedin K (NMK): neurokinin (Sigma), tachykinin
induction of luciferase activity by receptor agonists in pretest cell line A20 (cell line A20): could not be induced by any of the three tachykinins | relative effectiveness of the neurokinins ([1]; dosage activity curves, FIG. 29A): NKA>neuromedin K (NMK)>substance P (SP)

O=C(CCCN1CCC2(CC1)C(=O)NCN2c1ccccc1)c1ccc(F)cc1 [spiperone]
inhibition of the agonistic activity of serotonin (human 5HT2-receptor; constant serotonin (1 μg), increasing antagonist, FIG. 32B): able to be inhibited

CC(C)C[C@H]1C(=O)N2CCC[C@H]2[C@]2(O)O[C@](NC(=O)[C@@H]3C=C4c5cccc6[nH]c(Br)c(c56)C[C@H]4N(C)C3)(C(C)C)C(=O)N12 [bromocryptin]
change in luciferase expression/activity (cell line CHO C6-13): did not bring about any significant change in the luciferase activity | luciferase induction at the highest concentration (attributed to cell toxicity or low pH) ([2]; 100 μM bromocryptin): reversal of luciferase induction | activity on luciferase induction ([2]; FIG. 38B): dosage-dependent activity

neurokinin A: neurokinin (Sigma), agonist at neurokinin 2-receptor (HKTDSFVGLM-NH2; ends and bridges not checked; UniProt P20366 98-107, looked up)
induction of luciferase activity by receptor agonists in pretest cell line A20 (cell line A20): could not be induced by any of the three tachykinins

O.O.O.O.O.O.O.O=S(=O)([O-])[O-].[Mg+2] [MgSO4, magnesium sulphate-heptahydrate]
% max. signal (luciferase) (luciferase; MgSO4 0.35 g/l): 20% | % max. signal (luciferase) (luciferase; MgSO4 0.53 g/l): 48% | % max. signal (luciferase) (luciferase; MgSO4 0.79 g/l): 64% | % max. signal (luciferase) (luciferase; MgSO4 1.19 g/l): 77% | % max. signal (luciferase) (luciferase; MgSO4 1.78 g/l): 77% | % max. signal (luciferase) (luciferase; MgSO4 2.67 g/l): 100% | % max. signal (luciferase) (luciferase; MgSO4 4.00 g/l): 100%

COc1ccccc1CN[C@H]1C2CCN(CC2)[C@H]1C(c1ccccc1)c1ccccc1 (relative stereo) [BIBO 2020, ±cis-3-(2-methoxybenzylamino)-2-benzhydrylquinulidine]
inhibition of the agonistic effect of neurokinin A [1]: effective at higher concentrations (P7492>BIBO 2020>H-9290)

CN1CCc2cc(Cl)c(O)cc2[C@@H](c2ccccc2)C1 [SCH23390]
prevention of agonist-mediated induction (CRE) [3]: prevented

substance P (SP): neurokinin (Sigma), tachykinin (RPKPQQFFGLM-NH2; ends and bridges not checked; UniProt P20366 58-68, looked up)
induction of luciferase activity by receptor agonists in pretest cell line A20 (cell line A20): could not be induced by any of the three tachykinins

CC(C)Cn1c(=O)n(C)c(=O)c2[nH]cnc21 [IBMX, isobutylmethylxanthine]
change in luciferase expression/activity (cell line CHO C6-13): increased | shift in the forskolin dosage-activity curve to lower forskolin concentrations (cell line CHO C6-13; with IBMX): one order of magnitude | influence on maximum induction of the luciferase reporter gene (cell line CHO C6-13; with forskolin): not significantly influenced

CCCC(=O)Nc1ncnc2c1ncn2[C@@H]1O[C@@H]2COP(=O)(O)O[C@H]2[C@H]1OC(=O)CCC [dibutyryl-cAMP]
change in luciferase expression/activity (cell line CHO C6-13): increased

O=P(O)(O)OP(=O)(O)OP(=O)(O)O [NaTPP, sodium tripolyphosphate]
% max. signal (luciferase) (luciferase; NaTPP 5.01 mg/l): 54% | % max. signal (luciferase) (luciferase; NaTPP 15.8 mg/l): 64% | % max. signal (luciferase) (luciferase; NaTPP 50.0 mg/l): 82% | % max. signal (luciferase) (luciferase; NaTPP 158 mg/l): 100% | % max. signal (luciferase) (luciferase; NaTPP 500 mg/l): 75%

O=C(O)[C@H]1CSC(c2nc3ccc(O)cc3s2)=N1 [Lucifenn]
% max. signal (luciferase) (luciferase; luciferin 1.32 mg/l): 42% | % max. signal (luciferase) (luciferase; luciferin 1.98 mg/l): 58% | % max. signal (luciferase) (luciferase; luciferin 2.96 mg/l): 65% | % max. signal (luciferase) (luciferase; luciferin 4.44 mg/l): 75% | % max. signal (luciferase) (luciferase; luciferin 6.67 mg/l): 88% | % max. signal (luciferase) (luciferase; luciferin 10.0 mg/l): 95% | % max. signal (luciferase) (luciferase; luciferin 15.0 mg/l): 100%

OCCS [BME, β-mercaptoethanol]
max. signal (luciferase) (luciferase; BME 0.59 ml/l): 80% | max. signal (luciferase) (luciferase; BME 0.88 ml/l): 82% | max. signal (luciferase) (luciferase; BME 1.32 ml/l): 68% | max. signal (luciferase) (luciferase; BME 1.98 ml/l): 84% | max. signal (luciferase) (luciferase; BME 2.96 ml/l): 86% | max. signal (luciferase) (luciferase; BME 4.44 ml/l): 100% | max. signal (luciferase) (luciferase; BME 6.67 ml/l): 94% | max. signal (luciferase) (luciferase; BME 10.0 ml/l): 93%
